The nature of series [1]: Inhibition of Trypanosoma brucei NMT.
Series [2] has as its system Trypanosoma brucei. In words: Antitrypanosomal activity against Trypanosoma brucei assessed as reduction in parasite growth. The series is classed as functional, organism-based.
Series [3] deals with Plasmodium falciparum. Kind of series: Antiplasmodial activity against trophozoite stage Plasmodium falciparum 3D7 assessed as inhibition of plasmodial growth measured after 48 hrs by flow cytometry analysis. In kind it is functional, organism-based. Particulars: 3D7, 48 h.
The subject of series [4] is Plasmodium falciparum. Kind of series: Antiplasmodial activity against chloroquine resistant Plasmodium falciparum K1 assessed as inhibition of plasmodial growth measured after 48 hrs by flow cytometry analysis. In kind it is functional, organism-based. The conditions noted are these: K1, 48 h.
Series [5] in a line: Cytotoxicity against MDCK cells incubated overnight by MTT assay. In kind it is toxicity, cell-based, Canis lupus familiaris. Particulars: dog.
A short description of series [6]: Selectivity index, ratio of IC50 for MDCK cells to IC50 for trophozoite stage Plasmodium falciparum 3D7. In kind it is toxicity. The conditions noted are these: dog; read-out: Ratio IC50.
For series [7], the target named is T1, Glycylpeptide N-tetradecanoyltransferase (Plasmodium falciparum, UniProt Q9U419).
T1 sequence (Q9U419 whole entry): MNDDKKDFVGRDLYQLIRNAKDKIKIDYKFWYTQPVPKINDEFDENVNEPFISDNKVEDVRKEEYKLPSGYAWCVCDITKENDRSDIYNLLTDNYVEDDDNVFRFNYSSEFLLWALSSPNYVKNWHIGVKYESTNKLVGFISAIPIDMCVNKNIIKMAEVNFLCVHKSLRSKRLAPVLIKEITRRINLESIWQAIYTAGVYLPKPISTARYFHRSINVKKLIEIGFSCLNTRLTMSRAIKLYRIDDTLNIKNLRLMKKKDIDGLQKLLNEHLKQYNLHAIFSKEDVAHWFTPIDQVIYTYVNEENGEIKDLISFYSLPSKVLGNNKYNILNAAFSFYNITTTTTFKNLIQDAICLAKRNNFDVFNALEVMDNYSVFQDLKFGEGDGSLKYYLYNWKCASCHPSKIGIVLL
Kind of series: Inhibition of recombinant N-terminal Plasmodium falciparum NMT expressed in Escherichia coli using peptide substrate preincubated for 5 mins followed by substrate addition and measured after 30 mins by scintillation proximity assay.

Series [8] relates to Plasmodium falciparum. Kind of series: Antiplasmodial activity against synchronized late stage trophozoite Plasmodium falciparum 3D7 assessed as reduction in parasitemia relative to control. The series is classed as functional. On the set-up: scale not given: the % may be the effect or the level left.
A further series deals with Leishmania amazonensis. In words: Antileishmanial activity against Leishmania amazonensis IFLA/BR/1967/PH8 promastigote. In kind it is functional, organism-based.
The subject of the next series is Trypanosoma cruzi. In words: Antiprotozoal activity against Trypanosoma cruzi amastigotes measured after 24 hrs. In kind it is functional, organism-based.
Series [9] can be described thus: Binding affinity to Leishmania donovani NMT assessed as apparent inhibition constant. Particulars: read-out: Ki(app).
Series [10] deals with Leishmania donovani. Kind of series: Antileishmanial activity against Leishmania donovani amastigotes. The series is classed as functional, organism-based.
The target in series [11] is T2, Glycylpeptide N-tetradecanoyltransferase 1 (Homo sapiens, UniProt P30419).
T2 sequence (P30419 whole entry): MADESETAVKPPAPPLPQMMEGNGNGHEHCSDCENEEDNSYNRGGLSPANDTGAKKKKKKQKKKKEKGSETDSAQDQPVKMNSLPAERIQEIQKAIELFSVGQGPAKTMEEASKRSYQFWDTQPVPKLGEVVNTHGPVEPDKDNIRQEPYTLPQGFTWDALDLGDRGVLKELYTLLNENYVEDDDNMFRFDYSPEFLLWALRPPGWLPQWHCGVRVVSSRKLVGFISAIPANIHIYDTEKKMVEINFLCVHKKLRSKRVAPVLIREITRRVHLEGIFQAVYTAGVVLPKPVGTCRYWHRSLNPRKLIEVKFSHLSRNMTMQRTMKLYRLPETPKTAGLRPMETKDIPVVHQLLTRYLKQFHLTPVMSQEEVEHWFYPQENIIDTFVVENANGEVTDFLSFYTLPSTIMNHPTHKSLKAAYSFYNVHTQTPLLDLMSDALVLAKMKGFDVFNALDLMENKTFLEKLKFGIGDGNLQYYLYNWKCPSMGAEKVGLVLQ
Kind of series: Inhibition of human NMT.

Series [12] concerns Leishmania donovani. Kind of series: Antileishmanial activity against Leishmania donovani promastigote assessed as reduction in parasite growth measured after 72 hrs. In kind it is functional, organism-based.
In series [13] the test system is Trypanosoma brucei brucei. In words: Antitrypanosomal activity against bloodstream Trypanosoma brucei brucei s427 assessed as reduction in parasite growth measured after 72 hrs by inverted microscope based analysis. The series is classed as functional, organism-based. The conditions noted are these: s427, 72 h.
Series [14] in a line: Inhibition of N terminal his-6 tagged recombinant Trypanosoma brucei NMT incubated for 30 mins using biotinylated peptide substrate by scintillation counter analysis.
Series [15] in a line: Inhibition of N terminal his-6 tagged recombinant Trypanosoma brucei NMT using CAP5.5 peptide as substrate incubated for 10 mins.
Series [16] concerns Trypanosoma brucei. Kind of series: Antiprotozoal activity against blood stream form Trypanosoma brucei assessed as reduction in number of viable parasites measured after 72 hrs by Alamar blue staining based analysis. In kind it is functional. Particulars: read-out: ED50 (the source's name).
Series [17] can be described thus: Cytotoxicity against mouse RAW 264 cells by alamar blue staining based analysis. In kind it is functional. The conditions noted are these: RAW264.7, read-out: ED50 (the source's name).
Series [18] concerns the target T1, Glycylpeptide N-tetradecanoyltransferase. Kind of series: Inhibition of recombinant his tagged Plasmodium falciparum NMT expressed in Escherichia coli.
The test system of series [19] is Plasmodium falciparum. Kind of series: Antiplasmodial activity against Plasmodium falciparum 3D7 assessed as reduction in parasitemia growth. The series is classed as functional, organism-based.
Series [20] deals with T1, Glycylpeptide N-tetradecanoyltransferase. Kind of series: Inhibition of recombinant Plasmodium falciparum NMT using 3H-myristoyl CoA as substrate preincubated for 15 mins followed by substrate addition and measured after 80 mins.
In series [21] the target is T2, Glycylpeptide N-tetradecanoyltransferase 1. In words: Inhibition of human NMT1.
The target in series [22] is T3, Glycylpeptide N-tetradecanoyltransferase 2 (Homo sapiens, UniProt O60551).
T3 sequence (O60551 whole entry): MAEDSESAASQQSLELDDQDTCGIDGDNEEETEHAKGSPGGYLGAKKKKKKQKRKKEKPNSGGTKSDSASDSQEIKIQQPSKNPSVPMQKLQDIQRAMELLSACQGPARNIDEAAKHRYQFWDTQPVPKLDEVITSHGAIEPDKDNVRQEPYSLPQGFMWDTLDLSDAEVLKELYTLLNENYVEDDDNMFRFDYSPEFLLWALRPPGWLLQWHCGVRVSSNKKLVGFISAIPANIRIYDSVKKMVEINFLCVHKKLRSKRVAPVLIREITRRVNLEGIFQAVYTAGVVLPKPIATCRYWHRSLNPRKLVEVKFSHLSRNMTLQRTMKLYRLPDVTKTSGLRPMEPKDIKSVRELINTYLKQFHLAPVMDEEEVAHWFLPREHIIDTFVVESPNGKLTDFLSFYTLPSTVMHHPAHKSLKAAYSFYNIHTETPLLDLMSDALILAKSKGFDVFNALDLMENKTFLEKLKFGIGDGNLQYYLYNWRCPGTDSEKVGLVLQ
In words: Inhibition of human NMT2.

Series [23] concerns Leishmania donovani. Kind of series: Antileishmanial activity against Leishmania donovani MHOM/ET/67/HU3 axenic amastigotes. The series is classed as functional, organism-based.
In series [24] the test system is Leishmania donovani. In words: Antileishmanial activity against Leishmania donovani MHOM/ET/67/HU3 infected in BALB/c mouse model assessed as reduction in parasitic load at 50 mg/kg, po measured after 5 days relative to control. In kind it is functional. The arrangement: scale not given: the % may be the effect or the level left. Particulars: time 5 day.
The nature of series [25]: Inhibition of Leishmania donovani NMT using 3H-myristoyl CoA as substrate preincubated for 15 mins followed by substrate addition and measured after 80 mins.

Molecule `COc1cc(C2SCC(=O)N2Cc2ccccn2)ccc1O` (configuration not stated) yielded an IC50 in series [1] of 0.27 µM. The EC50 in the series with Trypanosoma brucei [2] was determined as 14 µM.

For the molecule `O=S(=O)(c1cc(Cl)ccc1Cl)N1CCC(O[C@H](c2ccc(Cl)cc2)c2ccccn2)CC1`, the figures for the IC50 (in the series with Plasmodium falciparum [3]; in the series with Plasmodium falciparum [4]; in series [5]) were 2.17 µM, 2.38 µM and over 200 µM, respectively. In addition, the selectivity ratio in [6] is over 92.3.

For `O=C(Nc1nc2cc(F)ccc2s1)[C@H]1CC[C@@H](NCc2ccc3ccccc3c2)CC1`, the IC50 in series [7] worked out at 53 µM. The Activity in the series on Plasmodium falciparum [8] came out at 80%.

For the molecule `O=C(C[Se]C(=O)c1ccccc1)Nc1ccc(Br)cc1`, in the series on Leishmania amazonensis, the IC50 is 5.5 µM.

In the case of `CN(C)C(=O)c1ccc2nc(NC(=O)[C@@H]3CCC[C@H](NCc4ccc5ccoc5c4)C3)sc2c1`, in [7], the 50% inhibitory concentration (IC50) turned out to be 53 µM.

For the molecule `Cc1nn(C)c(C)c1N(C(F)F)S(=O)(=O)c1c(Cl)cc(-c2ccc(CCCC3CCN(C)CC3)cc2)cc1Cl`, the EC50 in the series on Trypanosoma cruzi was determined as 0.06 µM.

Regarding `Cc1nn(C)c(C)c1NS(=O)(=O)c1c(Cl)cc(-c2ccnc(N3CCN(C)CC3)c2)cc1Cl`, in series [9], the Ki stood at 0.0063 µM. Moreover, the EC50 in the series with Leishmania donovani [10] stood at 0.15 µM.

Regarding `CCOC(=O)CN1C(=O)COc2ccccc21`, in series [1], the IC50 came to 12 µM.

For `Cc1cc(CN2C(=O)COc3cc(CCCOC[C@@H]4CCCN4C)ccc32)no1`, the IC50 in series [1] is 0.009 µM; in [11], 24 µM. Further, the EC50 in the series with Trypanosoma brucei [2] was found to be 0.007 µM.

Take `Cc1cc(CN2C(=O)COc3cc(CCCOC4CCNCC4)ccc32)no1`: the EC50 with Trypanosoma brucei [2] was 0.007 µM.

`Cc1onc(-c2ccccc2)c1CNS(=O)(=O)c1cnn(-c2ccccc2)c1C`: the IC50 came to 15.7 µM with Leishmania donovani [12] and 45 µM in series [13].

In the case of `Cc1c2c(c(O)c3c(O)cccc13)C(=O)OC2c1cc(O)c(C(N)=O)c(O)c1O` (configuration not stated), the IC50 worked out at 0.77 µM in series [14] and 0.46 µM in [15]. Also, the EC50 in the series on Trypanosoma brucei [16] was 16 µM; in series [17] it was 328 µM.

Consider `Cc1cc(Nc2ccc([N+](=O)[O-])cc2O)nc2ccccc12`, for which, in series [18], the concentration for half-maximal inhibition (IC50) is 1.4 µM. For the same molecule, the EC50 in the series on Plasmodium falciparum [19] turned out to be 0.4 µM.

In the case of `Cc1ncc(CNC(=O)C2CN(c3nc(NCCN(C)C)ncc3Cl)C2)cn1`, the IC50 in series [20] was determined as 0.48 µM; in series [21], 70 µM; in series [22] it was 76 µM.

Turning to `Cc1nn(C)c(C)c1N(C)S(=O)(=O)c1c(Cl)cc(CCCC2CCN(C)CC2)cc1Cl`, in the series on Leishmania donovani [23], the EC50 was 7.1 µM.

Take `Cc1nn(C)c(Cl)c1S(=O)(=O)Nc1ccc(Oc2ccc(F)cc2)cc1`: the values for the concentration for half-maximal inhibition (IC50) (in the series on Leishmania donovani [12]; in [13]) were 45.3 µM and 11.8 µM, respectively.

Regarding `Cc1nn(C)c(C)c1N(C(F)F)S(=O)(=O)c1c(Cl)cc(CCCC2CCN(C)CC2)cc1Cl`, in the series on Leishmania donovani [23], the EC50 was determined as 2.4 µM. For the same molecule, the Activity in the series with Leishmania donovani [24] was 52%.

In the case of `O=C(O)C1=CC(=C(c2ccc(O)c(C(=O)O)c2)c2ccc(O)c(C(=O)O)c2)C=CC1=O` [AURINTRICARBOXYLIC ACID], the IC50 in series [14] is 0.74 µM.

Take `c1cncc(CCNCc2cccc(-c3cccc(CN4CCc5ncsc5C4)c3)c2)c1`: the IC50 in series [25] came out at 0.16 µM.

Consider `O=[N+]([O-])c1ccc(S(=O)(=O)N2CCC(O[C@@H](c3ccc(Cl)cc3)c3ccccn3)CC2)cc1`, for which the IC50 with Plasmodium falciparum [3] was 3.27 µM; in the series on Plasmodium falciparum [4], 7.22 µM; in series [5] it was over 200 µM. For the same molecule, the selectivity ratio in series [6] is over 61.1.

Consider `Cc1ccc(S(=O)(=O)Nc2ccccc2Sc2ncnc3c(C)csc23)cc1`, for which the IC50 was found to be 32.1 µM in the series on Leishmania donovani [12] and 9.36 µM in series [13].

Values taken from ChEMBL document CHEMBL5634069, “Exploring N-myristoyltransferase as a promising drug target against parasitic neglected tropical diseases” (Eur J Med Chem, 2023).
